Data published in ChEMBL document CHEMBL1135430, “Synthesis of 3,4-dihydro-2H-1,2,4-benzo-thiadiazine 1,1-dioxide derivatives as potential allosteric modulators of AMPA/kainate receptors” (2002).

Organism: Rattus norvegicus
Assay: Variation of kainate-activated (KA) currents in primary cultures of cerebellar granule neurons at 1 mM using patch-clamp technique
Type: functional

CN(C)c1ccc(C2Nc3ccccc3S(=O)(=O)N2)cc1 (stereo unspecified) and CN(C)c1ccc(C2Nc3ccc(Cl)cc3S(=O)(=O)N2)cc1 (stereo unspecified) are the same in Variation: -1% for the first, -1% for the second.

Compared with O=S1(=O)NC(c2ccc(O)cc2)Nc2ccc(Cl)cc21 (stereo unspecified), O=S1(=O)NC(c2ccc(O)cc2)Nc2ccccc21 (stereo unspecified) is lower in Variation: -51% for the first, -60% for the second.

Going from O=S1(=O)NC(CCl)Nc2ccccc21 (stereo unspecified) to O=S1(=O)NC(CCl)Nc2ccc(Cl)cc21 (stereo unspecified), the Variation falls from -22% to -26%.

Compared with O=S1(=O)NC(C(F)(F)F)Nc2ccccc21 (stereo unspecified), O=S1(=O)NC(C(F)(F)F)Nc2ccc(Cl)cc21 (stereo unspecified) is higher in Variation: 70% for the first, 72% for the second.

Going from O=S1(=O)NC(c2ccccc2)Nc2ccccc21 (stereo unspecified) to CC1Nc2ccc(Cl)cc2S(=O)(=O)N1 (stereo unspecified), the Variation rises from -34% to 115%.

NS(=O)(=O)c1cc2c(cc1Cl)NC(C1CC3C=CC1C3)NS2(=O)=O (stereo unspecified) [CYCLOTHIAZIDE] showed a Variation of 111%.
